Patent US4181657A, “2-Aminooctahydroindolo[2,3-a]quinolizines useful in treating cardiovascular disorders” (Miles Laboratories, Inc., priority 1978, dated 1980)

Experiments:
Format in all cases: in vivo
dog heart in situ = experiment: Antianginal activity: aortic-coronary sinus difference in oxygen (myocardial oxygen consumption) in anesthetized dogs; settings: 1 mg/kg i.v.; for antianginal activity (conclusion in words): based upon comparison with nitroglycerin, named compounds 'particularly'
Procedure: Angina pectoris is a clinical condition of hypoxia that results from an imbalance in myocardial oxygen supply and demand. A drug reducing oxygen demand is useful in the treatment of angina pectoris, as has been the case with nitroglycerin and the beta-adrenergic blocking agents like propranolol (J. R. Paratt, Advan. Drug Res. 9:103-134, 1974). Accordingly,the antianginal activity of 2-substituted indoloquinolizines was evaluated by assessing their capacity to reduce oxygen consumption by the dog heart in situ. This method allows measurement of the difference in oxygen content of the arterial and venous blood.
Mongrel dogs were anesthetized with pentobarbital and cannulas inserted in the trachea and in a femoral vein for artificial respiration with room air and for injection of test compounds, respectively. Heparin was administered intravenously to prevent blood clotting. The chest was opened at the sternal midline and an additional cannula introduced in the coronary sinus. Samples of blood were obtained from the coronary sinus cannula and from the thoracic aorta by direct puncture of the vessel. Partial pressure of oxygen in the samples was determined with a blood gas analyzer. Test compounds were injected intravenously at a dose of 1 mg/kg; oxygen measurements were made before administration and at 1, 5, 10, 20, 30, 40, 50 and 60 min after administration. One animal was used per test compound. As the standard of comparison, nitroglycerin was administered to a test animal and measurements were made in a similar manner.
Differences between partial pressure values in arterial and venous blood samples were calculated for each measurement. Since coronary sinus blood is representative of the venous effluent from the heart, these differences reflect the consumption of oxygen by the myocardium. Thus, the decrease in arteriovenous oxygen difference produced by the compounds by this invention indicates a reduction in myocardial oxygen consumption.

[1] = system: ventricular arrhythmia produced by chloroform; experiment: Antiarrhythmic activity: protection from chloroform-induced ventricular arrhythmia in mice (Lawson model); settings: mouse; for ED50: ip, 10 min, i.p., 10 min before chloroform, 95% confidence limits in parentheses, read-out: ED50 (95% C.L.); for mice protected of 5 / Antiarrhythmic activity, ED50 symbol (failed screening dose): 31 mg/kg i.p.; for Antiarrhythmic activity, ED50 symbol (failed screening dose): groups of 5 mice
Procedure: The antiarrhythmic activity of the compounds of this invention was determined in the experimental model described by J. W. Lawson (J. Pharmacol. Exper. Therap. 160:22-31, 1968). Test compounds were administered to groups of 5 mice at an intraperitoneal dose of 31 mg/kg. Ten minutes after injection each mouse was placed in a covered 300 ml glass beaker which contained cotton saturated with chloroform. The animal was observed closely and removed from the beaker immediately after respiratory arrest. The heart was quickly exposed by making an incision through the abdomen, diaphragm, thorax and pericardium for visual inspection of ventricular rate and rhythm. Ventricular contractions were counted for 30 seconds and animals with a rate not exceeding 100 beats per 30 seconds were considered protected from the ventricular arrhythmia produced by chloroform. Compounds protecting at least 3 of the 5 mice were subsequently tested at various doses and the results obtained were used to calculate the mean effective doses (ED50) and 95% confidence limits after the method of Litchfield and Wilcoxon (J. Pharmacol. Exper. Therap. 96:99-113, 1949). Table A presents the results obtained in the antiarrhythmic study.

Systolic Blood Pressure = experiment: Antihypertensive activity: indirect systolic blood pressure in renal hypertensive rats; settings: rat, 31 mg/kg p.o., * in table = statistically significant change from control
Procedure: Rats were made hypertensive by applying a figure of eight ligature to one kidney and removing the contralateral kidney two weeks later. At least four weeks after the second operation the animals were subjected to indirect systolic blood pressure measurements with an occluding cuff and pulse sensor system applied to the tail. Pressure measurements were made before and 1,2,4,6 and 8 hours after oral administration of the test compounds at a dose of 31 mg/kg. Each compound was tested in 5 or 10 rats. Statistical significance of differences between control and post treatment values was determined by Wilcoxon's signed rank test (F. Wilcoxon and R. A. Wilcox, Some Rapid Approximate Statistical Procedures, Lederle Laboratories, Pearl River, 1964).

Brc1ccc(NC2CCN3CCc4c(n(Cc5ccccc5)c5ccccc45)C3C2)cc1.Cl.Cl (stereo not drawn) [TR3631, 12-benzyl-2-(4-bromoanilino)-1,2,3,4,6,7,12,12b-octahydroindolo[2,3-a]quinolizine dihydrochloride]
Arterio-Venous Difference in Oxygen Partial Pressure at 1 min (dog heart in situ): 26 mmHg
Arterio-Venous Difference in Oxygen Partial Pressure at 5 min (dog heart in situ): 33 mmHg
Arterio-Venous Difference in Oxygen Partial Pressure at 10 min (dog heart in situ): 32 mmHg
Arterio-Venous Difference in Oxygen Partial Pressure at 20 min (dog heart in situ): 30 mmHg
Arterio-Venous Difference in Oxygen Partial Pressure at 30 min (dog heart in situ): 30 mmHg
Arterio-Venous Difference in Oxygen Partial Pressure at 40 min (dog heart in situ): 32 mmHg
Arterio-Venous Difference in Oxygen Partial Pressure at 50 min (dog heart in situ): 31 mmHg
Arterio-Venous Difference in Oxygen Partial Pressure at 60 min (dog heart in situ): 31 mmHg
antianginal activity (conclusion in words) (dog heart in situ): antianginal activity is seen
ED50 [1]: 37 mg/kg
mice protected of 5 [1]: at least 3 of 5 mice
Change in Systolic Blood Pressure at 1 hr (Systolic Blood Pressure): +10 mmHg
Change in Systolic Blood Pressure at 2 hr (Systolic Blood Pressure): -5 mmHg
Change in Systolic Blood Pressure at 4 hr (Systolic Blood Pressure): +12 mmHg
Change in Systolic Blood Pressure at 6 hr (Systolic Blood Pressure): +3 mmHg
Change in Systolic Blood Pressure at 8 hr (Systolic Blood Pressure): 0 mmHg

CC(=O)Nc1cccc(NC2CCN3CCc4c(n(Cc5ccccc5)c5ccccc45)C3C2)c1.O=C(O)C(=O)O (stereo not drawn) [TR3716, 2-(3-acetamidoanilino)-12-benzyl-1,2,3,4,6,7,12,12b-octahydroindolo[2,3-a]quinolizine oxalate]
Arterio-Venous Difference in Oxygen Partial Pressure at 1 min (dog heart in situ): 22 mmHg
Arterio-Venous Difference in Oxygen Partial Pressure at 5 min (dog heart in situ): 27 mmHg
Arterio-Venous Difference in Oxygen Partial Pressure at 10 min (dog heart in situ): 29 mmHg
Arterio-Venous Difference in Oxygen Partial Pressure at 20 min (dog heart in situ): 28 mmHg
Arterio-Venous Difference in Oxygen Partial Pressure at 30 min (dog heart in situ): 27 mmHg
Arterio-Venous Difference in Oxygen Partial Pressure at 40 min (dog heart in situ): 28 mmHg
Arterio-Venous Difference in Oxygen Partial Pressure at 50 min (dog heart in situ): 28 mmHg
Arterio-Venous Difference in Oxygen Partial Pressure at 60 min (dog heart in situ): 28 mmHg
Antiarrhythmic activity, ED50 symbol (failed screening dose) [1]: * (Did not protect 3 of 5 mice and thus was not tested further.)
Change in Systolic Blood Pressure at 1 hr (Systolic Blood Pressure): -49 mmHg
Change in Systolic Blood Pressure at 2 hr (Systolic Blood Pressure): -42 mmHg
Change in Systolic Blood Pressure at 6 hr (Systolic Blood Pressure): -17 mmHg
Change in Systolic Blood Pressure at 8 hr (Systolic Blood Pressure): -6 mmHg

CC(=O)Nc1ccc(NC2CCN3CCc4c(n(Cc5ccccc5)c5ccccc45)C3C2)cc1.Cl.Cl (stereo not drawn) [TR3635, 2-(4-acetamidoanilino)-12-benzyl-1,2,3,4,6,7,12,12b-octahydroindolo-[2,3-a]quinolizine dihydrochloride]
Arterio-Venous Difference in Oxygen Partial Pressure at 1 min (dog heart in situ): 24 mmHg
Arterio-Venous Difference in Oxygen Partial Pressure at 5 min (dog heart in situ): 24 mmHg
Arterio-Venous Difference in Oxygen Partial Pressure at 10 min (dog heart in situ): 24 mmHg
Arterio-Venous Difference in Oxygen Partial Pressure at 20 min (dog heart in situ): 23 mmHg
Arterio-Venous Difference in Oxygen Partial Pressure at 30 min (dog heart in situ): 24 mmHg
Arterio-Venous Difference in Oxygen Partial Pressure at 40 min (dog heart in situ): 26 mmHg
Arterio-Venous Difference in Oxygen Partial Pressure at 50 min (dog heart in situ): 25 mmHg
Arterio-Venous Difference in Oxygen Partial Pressure at 60 min (dog heart in situ): 26 mmHg
Antiarrhythmic activity, ED50 symbol (failed screening dose) [1]: * (Did not protect 3 of 5 mice and thus was not tested further.)
Change in Systolic Blood Pressure at 1 hr (Systolic Blood Pressure): -23 mmHg
Change in Systolic Blood Pressure at 2 hr (Systolic Blood Pressure): -23 mmHg
Change in Systolic Blood Pressure at 4 hr (Systolic Blood Pressure): -27 mmHg
Change in Systolic Blood Pressure at 6 hr (Systolic Blood Pressure): -16 mmHg
Change in Systolic Blood Pressure at 8 hr (Systolic Blood Pressure): -10 mmHg

Cl.Cl.NC1CCN2CCc3c(n(Cc4ccccc4)c4ccccc34)C2C1.O (stereo not drawn) [TR3698, 2-amino-12-benzyl-1,2,3,4,6,7,12,12b-octahydroindolo [2,3-a]-quinolizine dihydrochloride monohydrate]
Arterio-Venous Difference in Oxygen Partial Pressure at 1 min (dog heart in situ): 27 mmHg
Arterio-Venous Difference in Oxygen Partial Pressure at 5 min (dog heart in situ): 27 mmHg
Arterio-Venous Difference in Oxygen Partial Pressure at 10 min (dog heart in situ): 27 mmHg
Arterio-Venous Difference in Oxygen Partial Pressure at 20 min (dog heart in situ): 28 mmHg
Arterio-Venous Difference in Oxygen Partial Pressure at 30 min (dog heart in situ): 28 mmHg
Arterio-Venous Difference in Oxygen Partial Pressure at 40 min (dog heart in situ): 29 mmHg
Arterio-Venous Difference in Oxygen Partial Pressure at 50 min (dog heart in situ): 28 mmHg
Arterio-Venous Difference in Oxygen Partial Pressure at 60 min (dog heart in situ): 27 mmHg
ED50 [1]: 42 mg/kg
mice protected of 5 [1]: at least 3 of 5 mice
Change in Systolic Blood Pressure at 1 hr (Systolic Blood Pressure): -4 mmHg
Change in Systolic Blood Pressure at 2 hr (Systolic Blood Pressure): -11 mmHg
Change in Systolic Blood Pressure at 4 hr (Systolic Blood Pressure): -3 mmHg
Change in Systolic Blood Pressure at 6 hr (Systolic Blood Pressure): +14 mmHg
Change in Systolic Blood Pressure at 8 hr (Systolic Blood Pressure): +3 mmHg

COc1ccc(NC2CCN3CCc4c(n(Cc5ccccc5)c5ccccc45)C3C2)cc1.Cl.Cl (stereo not drawn) [TR3006, 12-benzyl-2-(4-methoxyanilino)-1,2,3,4,6,7,12,12b-octahydroindolo[2,3-a]quinolizine dihydrochloride]
Arterio-Venous Difference in Oxygen Partial Pressure at 1 min (dog heart in situ): 30 mmHg
Arterio-Venous Difference in Oxygen Partial Pressure at 5 min (dog heart in situ): 44 mmHg
Arterio-Venous Difference in Oxygen Partial Pressure at 10 min (dog heart in situ): 45 mmHg
Arterio-Venous Difference in Oxygen Partial Pressure at 20 min (dog heart in situ): 42 mmHg
Arterio-Venous Difference in Oxygen Partial Pressure at 30 min (dog heart in situ): 37 mmHg
Arterio-Venous Difference in Oxygen Partial Pressure at 40 min (dog heart in situ): 38 mmHg
Arterio-Venous Difference in Oxygen Partial Pressure at 50 min (dog heart in situ): 36 mmHg
Arterio-Venous Difference in Oxygen Partial Pressure at 60 min (dog heart in situ): 36 mmHg
antianginal activity (conclusion in words) (dog heart in situ): antianginal activity is seen
Antiarrhythmic activity, ED50 symbol (failed screening dose) [1]: * (Did not protect 3 of 5 mice and thus was not tested further.)
Change in Systolic Blood Pressure at 1 hr (Systolic Blood Pressure): -28 mmHg
Change in Systolic Blood Pressure at 2 hr (Systolic Blood Pressure): -20 mmHg
Change in Systolic Blood Pressure at 4 hr (Systolic Blood Pressure): -18 mmHg
Change in Systolic Blood Pressure at 6 hr (Systolic Blood Pressure): -12 mmHg
Change in Systolic Blood Pressure at 8 hr (Systolic Blood Pressure): -14 mmHg

O=[N+]([O-])OCC(CO[N+](=O)[O-])O[N+](=O)[O-] [Nitroglycerin, nitroglycerin, reference compound]
Arterio-Venous Difference in Oxygen Partial Pressure at 1 min (dog heart in situ): 13 mmHg
Arterio-Venous Difference in Oxygen Partial Pressure at 5 min (dog heart in situ): 21 mmHg
Arterio-Venous Difference in Oxygen Partial Pressure at 10 min (dog heart in situ): 20 mmHg
Arterio-Venous Difference in Oxygen Partial Pressure at 20 min (dog heart in situ): 20 mmHg
Arterio-Venous Difference in Oxygen Partial Pressure at 30 min (dog heart in situ): 21 mmHg
Arterio-Venous Difference in Oxygen Partial Pressure at 40 min (dog heart in situ): 21 mmHg
Arterio-Venous Difference in Oxygen Partial Pressure at 50 min (dog heart in situ): 18 mmHg
Arterio-Venous Difference in Oxygen Partial Pressure at 60 min (dog heart in situ): 20 mmHg
